For 13 compounds, EC (1.5-fold) and maximal fold induction results are on record in patent publication US9975900B2, “Substituted imidazo[1,2-α]pyrazines for treating spinal muscular atrophy” (Hoffmann-La Roche Inc., priority 2014, dated 2018).

The test system of test [1] is full length SMN2 minigene mRNA (HEK293H cells stably transfected with the SMN2-A minigene construct). The test is described as follows: RT-qPCR assay for SMN2 minigene pre-mRNA splicing in cultured cells. The test is classed as cell-based. Particulars: Homo sapiens, HEK293-H, 24 hours, 7-point concentration curve, concentration giving 1.5-fold FL SMN2mini mRNA vs vehicle, read-out: EC1.5x minigene (EC1.5x concentration for production of full length SMN2 minigene mRNA). On the procedure:
The reverse transcription-quantitative PCR-based (RT-qPCR) assay is used to quantify the level of the full length SMN2 minigene (referred to herein by the term “FL SMN2mini”) mRNA containing SMN2 exon 7 in a HEK293H cell line stably transfected with said minigene and treated with a test compound. Materials used and respective sources are listed below in Table 1.
The SMN2-A minigene construct was prepared as described in International Patent Application WO2009/151546A1 page 145 paragraph [00400] to page 147 paragraph [00412] (incl. FIG. 1 and FIG. 3 therein).
HEK293H cells stably transfected with the SMN2-A minigene construct (10,000 cells/well) are seeded in 200 μL of cell culture medium (DMEM plus 10% FBS, with 200 μg/mL hygromycin) in 96-well flat-bottom plates and the plate is immediately swirled to ensure proper dispersal of cells and the formation of an even monolayer of cells. Cells are allowed to attach for 6 hours. Test compounds are serially diluted 3.16-fold in 100% DMSO to generate a 7-point concentration curve. A solution of test compound (1 μL, 200× in DMSO) is added to each cell-containing well and the plate is incubated for 24 hours in a cell culture incubator (37° C., 5% CO2, 100% relative humidity). 2 replicates are prepared for each test compound concentration. The cells are then lysed in the Cells-To-Ct lysis buffer and the lysate is stored at −80° C.
Full length SMN2-A minigene and GAPDH mRNA are quantified using the primers and probes referenced in Table 2. Primer SMN Forward A (SEQ ID NO.1) hybridizes to a nucleotide sequence in exon 7 (nucleotide 22 to nucleotide 40), primer SMN Reverse A (SEQ ID NO.2) hybridizes to a nucleotide sequence in the coding sequence of Firefly luciferase, SMN Probe A (SEQ ID NO.3) hybridizes to a nucleotide sequence in exon 7 (nucleotide 50 to nucleotide 54) and exon 8 (nucleotide 1 to nucleotide 21). The combination of these three oligonucleotides detects only SMN1 or SMN2 minigenes (RT-qPCR) and will not detect endogenous SMN1 or SMN2 genes.
The SMN forward and reverse primers are used at final concentrations of 0.4 μM. The SMN probe is used at a final concentration of 0.15 μM. The GAPDH primers are used at final concentrations of 0.2 μM and the probe at 0.15 μM.
The SMN2-minigene GAPDH mix (15 μL total volume) is prepared by combining 7.5 of 2×RT-PCR buffer, 0.4 μL of 25×RT-PCR enzyme mix, 0.75 μL of 20× GAPDH primer-probe mix, […] of water, 2 μL of 10-fold diluted cell lysate, 0.06 μL of 100 μM SMN forward primer, 0.06 μL of 100 μM SMN reverse primer, and 0.225 μL of 100 μM SMN probe.
PCR is carried out at the following temperatures for the indicated time: Step 1: 48° C. (15 min); Step 2: 95° C. (10 min); Step 3: 95° C. (15 sec); Step 4: 60° C. (1 min); then repeat Steps 3 and 4 for a total of 40 cycles.
Each reaction mixture contains both SMN2-A minigene and GAPDH primers/probe sets (multiplex design), allowing simultaneous measurement of the levels of two transcripts.
The increase in the abundance of the FL SMN2mini mRNA relative to that in cells treated with vehicle control is determined from real-time PCR data using a modified ΔΔCt method (as described in Livak and Schmittgen, Methods, 2001, 25:402-8). The amplification efficiency E is calculated from the slope of the amplification curve for FL SMN2mini and GAPDH individually. The abundance of FL SMN2mini and GAPDH mRNA are then calculated as (1+E)^−Ct, where Ct is the threshold value for each amplicon. The abundance of FL SMN2mini mRNA is normalized to GAPDH mRNA abundance. The normalized FL SMN2mini mRNA abundance from test compound-treated samples is then divided by normalized FL SMN2mini mRNA abundance from vehicle-treated cells to determine the level of FL SMN2mini mRNA relative to vehicle control. […]
A general note: In qPCR the cycle at which signal appears reflects the starting amount.

Test [2] deals with SMN protein in SMA patient fibroblast cells (GM03813). The test is described as follows: SMN protein assay (HTRF) in cultured cells. The test is classed as cell-based. Particulars: Homo sapiens, SMA Type 1 patient fibroblasts, 48 hours; for EC (1.5-fold): 7-point concentration curve, concentration giving 1.5 times SMN protein vs vehicle, read-out: EC1.5x SMN protein (EC1.5x concentration for SMN protein expression); for maximal fold induction: fold increase relative to vehicle control, read-out: Max. fold increase of SMN protein. Here is the method:
The SMN HTRF (homogeneous time resolved fluorescence) assay is used to quantify the level of SMN protein in SMA patient fibroblast cells treated with test compounds. Materials used and respective sources are listed below in Table 4.
Cells are thawed and cultured in DMEM-10% FBS for 72 hours. Cells are trypsinized, counted and re-suspended to a concentration of 25,000 cells/mL in DMEM-10% FBS. The cell suspensions are plated at 5,000 cells per well in a 96 well microtiter plate and incubated for 3 to 5 hours. Test compounds are serially diluted 3.16-fold in 100% DMSO to generate a 7-point concentration curve. 1 μL of test compound solution is transferred to cell-containing wells and cells are incubated for 48 hours in a cell culture incubator (37° C., 5% CO2, 100% relative humidity). Triplicate samples are set up for each test compound concentration. After 48 hours, the supernatant is removed from the wells and 25 μL of the RIPA lysis buffer, containing protease inhibitors, is added to the wells and incubated with shaking at room temperature for 1 hour. 25 μL of the diluent is added and then 35 μL of the resulting lysate is transferred to a 384-well plate, where each well contains 5 μL of the antibody solution (1:100 dilution of anti-SMN d2 and anti-SMN cryptate in SMN reconstitution buffer). The plate is centrifuged for 1 minute to bring the solution to the bottom of the wells, then incubated overnight at room temperature. Fluorescence for each well of the plate at 665 nm and 620 nm is measured on an EnVision multilabel plate reader (Perkin-Elmer).
The normalized fluorescence signal is calculated for each sample, Blank and vehicle control well by dividing the signal at 665 nm by the signal at 620 nm. Normalizing the signal accounts for possible fluorescence quenching due to the matrix effect of the lysate. The ΔF value (a measurement of SMN protein abundance as a percent value) for each sample well is calculated by subtracting the normalized average fluorescence for the Blank control wells from the normalized fluorescence for each sample well, then dividing this difference by the normalized average fluorescence for the Blank control wells and multiplying the resulting value by 100. The ΔF value for each sample well represents the SMN protein abundance from test compound-treated samples. The ΔF value for each sample well is divided by the ΔF value for the vehicle control wells to calculate the fold increase in SMN protein abundance relative to the vehicle control. Table 5 provides EC1.5× concentrations for SMN protein expression that was obtained from the 7-point concentration data generated according to the above procedure for particular compounds of the present invention.
Table 6 provides the maximum fold increase of SMN protein that was obtained from the 7-point concentration data generated according to the above procedure for particular compounds of the present invention

Each structure is given as a SMILES string. Structures can show the parent of a compound that is named as a salt.

Regarding `CC[C@@H]1CN(c2ccc(C(=O)Nc3cn4cc(C)nc4cn3)c(OC)n2)CCN1` [Example 46, 6-[(3R)-3-ethylpiperazin-1-yl]-2-methoxy-N-(2-methylimidazo[1,2-a]pyrazin-6-yl)pyridine-3-carboxamide hydrochloride], the EC (1.5-fold) in test [1] turned out to be 0.189 µM; in test [2], 0.58 µM. The maximal fold induction in test [2] worked out at 1.67.
On to `COc1cc(N2CCNC3(CC3)C2)ccc1C(=O)Nc1cn2cc(C)nc2cn1` [Example 34, 4-(4,7-diazaspiro[2.5]octan-7-yl)-2-methoxy-N-(2-methylimidazo[1,2-a]pyrazin-6-yl)benzamide], for which the EC (1.5-fold) in test [1] is 0.214 µM. Further, in test [2], the EC (1.5-fold) stood at 1.25 µM and the maximal fold induction came out at 1.69.
As for `Cc1cn2cc(NC(=O)c3ccc(N4CCN5CCC[C@H]5C4)cc3F)ncc2n1` [Example 8, 4-[(8aS)-3,4,6,7,8,8a-hexahydro-1H-pyrrolo[1,2-a]pyrazin-2-yl]-2-fluoro-N-(2-methylimidazo[1,2-a]pyrazin-6-yl)benzamide], in test [1], the EC (1.5-fold) turned out to be 0.0407 µM. Also, in test [2], the EC (1.5-fold) worked out at 0.351 µM and the maximal fold induction came to 1.77.
In the case of `Cc1cn2cc(NC(=O)c3ccc(N4CCNC5(CC5)C4)cc3F)ncc2n1` [Example 26, 4-(4,7-diazaspiro[2.5]octan-7-yl)-2-fluoro-N-(2-methylimidazo[1,2-a]pyrazin-6-yl)benzamide hydrochloride], the EC (1.5-fold) in test [1] is 0.0596 µM; in test [2] it was 1.61 µM. Also, the maximal fold induction in test [2] is 1.57.
Taken in the same sequence, the figures for `CCOc1cc(N2CCN3CCC[C@H]3C2)ccc1C(=O)Nc1cn2cc(C)nc2cn1` [Example 3, 4-[(8aS)-3,4,6,7,8,8a-hexahydro-1H-pyrrolo[1,2-a]pyrazin-2-yl]-2-ethoxy-N-(2-methylimidazo[1,2-a]pyrazin-6-yl)benzamide] were 0.102 µM, 0.409 µM and 1.83.
The matching figures for `COc1nc(N2CCNCC2)ccc1C(=O)Nc1cn2cc(C)nc2cn1` [Example 47, 2-methoxy-N-(2-methylimidazo[1,2-a]pyrazin-6-yl)-6-piperazin-1-ylpyridine-3-carboxamide hydrochlorid]: 0.129 µM, 0.551 µM and 1.64.
For the compound `COc1cc(N2CC[C@@H](N3CCCC3)C2)ccc1C(=O)Nc1cn2cc(C)nc2cn1` [Example 39, 2-methoxy-N-(2-methylimidazo[1,2-a]pyrazin-6-yl)-4-[(3R)-3-pyrrolidin-1-ylpyrrolidin-1-yl]benzamide], in test [1], the EC (1.5-fold) is 0.118 µM. Besides, in test [2], the EC (1.5-fold) was 0.379 µM and the maximal fold induction was determined as 1.75.
On to `Cc1cn2cc(NC(=O)c3ccc(N4CCNC(C)(C)C4)cc3F)nc(C3CC3)c2n1` [Example 37, N-(8-cyclopropyl-2-methylimidazo[1,2-a]pyrazin-6-yl)-4-(3,3-dimethylpiperazin-1-yl)-2-fluorobenzamide hydrochloride], for which, in test [1], the EC (1.5-fold) was found to be 0.0317 µM. Further, in test [2], the EC (1.5-fold) came to 0.287 µM and the maximal fold induction worked out at 1.72.
The matching figures for `CCOc1cc(N2CCN[C@H](C)C2)ccc1C(=O)Nc1cn2cc(C)nc2c(C)n1` [Example 15, N-(2,8-dimethylimidazo[1,2-a]pyrazin-6-yl)-2-ethoxy-4-[(3R)-3-methylpiperazin-1-yl]benzamide]: 0.038 µM, 0.303 µM and 1.72.
The matching figures for `CCOc1cc(N2CCN3CCC[C@H]3C2)ccc1C(=O)Nc1cn2cc(C)nc2c(C)n1` [Example 12, 4-[(8aS)-3,4,6,7,8,8a-hexahydro-1H-pyrrolo[1,2-a]pyrazin-2-yl]-N-(2,8-dimethylimidazo[1,2-a]pyrazin-6-yl)-2-ethoxybenzamide]: 0.145 µM, 1.73 µM and 1.56.
Taken in the same sequence, the figures for `Cc1cn2cc(NC(=O)c3c(F)cc(N4CCN5CCC[C@H]5C4)cc3F)nc(C)c2n1` [Example 18, 4-[(8aS)-3,4,6,7,8,8a-hexahydro-1H-pyrrolo[1,2-a]pyrazin-2-yl]-N-(2,8-dimethylimidazo[1,2-a]pyrazin-6-yl)-2,6-difluorobenzamide] were 0.0234 µM, 0.117 µM and 1.75.
As for `COc1cc(N2C[C@@H](C)N[C@@H](C)C2)ccc1C(=O)Nc1cn2cc(C)nc2cn1` [Example 31, 4-[(3R,5S)-3,5-dimethylpiperazin-1-yl]-2-methoxy-N-(2-methylimidazo[1,2-a]pyrazin-6-yl)benzamide], the EC (1.5-fold) in test [1] was found to be 0.0358 µM. For the same compound, in test [2], the EC (1.5-fold) worked out at 0.221 µM and the maximal fold induction is 1.87.
Regarding `CCOc1cc(N2CCCNCC2)ccc1C(=O)Nc1cn2cc(C)nc2cn1` [Example 9, 4-(1,4-diazepan-1-yl)-2-ethoxy-N-(2-methylimidazo[1,2-a]pyrazin-6-yl)benzamide], in test [1], the EC (1.5-fold) was found to be 0.098 µM. In addition, in test [2], the EC (1.5-fold) worked out at 0.345 µM and the maximal fold induction was found to be 1.73.
